System: adjuvant arthritis
Test: "In vivo" study: adjuvant arthritis (Mycobacterium tuberculosis) in rats, weight of the right rear paw
Parameters: species or system male Sprague-Dawley rats
Settings: oral, 0.16 mmol/kg/day, 6 days/week for 3 weeks, versus untreated arthritic control rats
Experimental: "IN VIVO" STUDY: ADJUVANT ARTHRITIS
The injection of rats with mycobacterium causes a polyarthritis and in certain respects resembles human rheumatoid arthritis.
A suspension of Mycobacterium tuberculosis (0.4 mg) in paraffin oil (0.05 ml) is injected intradermally into the tail of male Sprague-Dawley rats having a mean weight of 150 g.
These rats are divided into 2 groups of 14 animals.
The animals of the 1st group are treated 6 days/week for 3 weeks;
either subcutaneously with doses ranging from 0.32 μmol to 32 μmol/kg/day,
or orally with a dose of 0.16 mmol/kg/day. The second group receives placebo and serves as the control group.
After 3 weeks of treatment, half the animals in each group are sacrificed; the other half are kept for 2 weeks without treatment and then sacrificed in turn.
After the animals have been sacrificed, the right rear paw is removed at the tribiotarsal joint and then weighed. The mean and the standard error of the weights are determined for each half-group.
The activity of the product is expresed as the percentage variation in the mean weight of the paws of the treated arthritic rats relative to that of the arthritic paws of the untreated rats (control rats).
For each of the products tested, the therapeutic activity is expressed as the percentage inhibition of the weight of the paw after 3 weeks of treatment. […]

## Cc1ccc(SCC(N)(P(=O)(O)O)P(=O)(O)O)cc1 [42 710 A]
Then 2 weeks without treatment
  % Inhibition of the weight of the paw 2 weeks after the end of the treatment: 7%
  % Inhibition of the weight of the paw at the end of the treatment (3 weeks): 19%

Reference: US4876247A, “Methlenediphosphonic acid derivatives, and antirheumatic pharmaceutical composition in which they are present and methods of using same” (Sanofi, priority 1984, dated 1989)
